Results as given in patent US7294643B2, “UK-1 analogues: methods of preparation and use” (Board of Regents, The University of Texas System, priority 2002, dated 2007).
Like-named read-outs stand apart in the source and are kept apart here. Values belong to the molecule of their own block, whether it stands above or below them.

Tests used:
yeast, or fungi = details: cited from earlier work
[1] = system: gram-positive or gram negative bacteria; details: cited from earlier work
[2] = alamarBlue cytotoxicity, range over four cell lines; assay type: cell-based; details: human
Method: (§1) Cytotoxicity Assays. Cell culture cytotoxicity assays were performed using the. alamarBlue method, as described by Ahmed et al., J. Immun. Methods 1994, 170, 211-224, which is incorporated herein by reference. Briefly, aliquots of 100 μL of cell suspension (1.0-2.5×10^3 cells) was placed in 96-well microtiter plates in an atmosphere of 5% CO2 at 37° C. After 24 hours, 100 μL of culture medium and 2 μL of compound in vehicle (culture media with 40% pyridine) or vehicle alone were added, and the plates incubated an additional 72 hours. […] After the culture media had been removed from each well, 200 μL of fresh media and 20 μL of 90% alamarBlue reagent were added, followed by an additional 6 h incubation. The fluorescent intensity was measured using a Spectrafluor Plus plate reader with excitation at 530 nm and emission at 590 nm.

[3] = system: methicillin-resistant S. aureus ATCC 43300; assay: Antimicrobial bioassay, methicillin-resistant S. aureus; assay type: cell-based, Staphylococcus aureus; details: Staphylococcus aureus, ATCC43300
Method: (§2) Antimicrobial Bioassay: Staphylococcus aureus ATCC 29213 and methicillin-resistant S. aureus ATCC 43300 (MRS) were obtained from the American Type Culture Collection (Rockville, Md.) and stored on agar slants at 4° C. until needed. Susceptibility testing was performed using a modified version of the NCCLS methods: “Methods for Dilution Antimicrobial Susceptibility Tests for Bacteria that Grow Aerobically,” M7-A4, Vol. 17, No. 2, NCCLS, (1997) and “Reference Method for Broth Dilution Antifungal Susceptibility Testing of Yeasts; Approved Standard,” M27-A, Vol. 17, No. 9, NCCLS, (1997), both of which are incorporated herein by reference. Microorganisms were subcultured prior to the assay by suspending cells from the slant in Eugon broth (BBL, Maryland) and incubating for 24 hours at 37° C. Inocula were prepared by diluting the subcultured organism in its incubation broth after comparison to the 0.5 McFarland Standard (a BaSO4 suspension) to afford final inocula ranges of S. aureus: 1.0-5.0×10^5 and MRS: 0.2-6.0×10^5 CFU/ml. Test compounds were dissolved in DMSO, serially-diluted using normal saline, and transferred in duplicate to 96 well flat-bottomed microtiter plates. The microbial inocula were added to the samples to achieve a final volume of 200 μl and final compound concentrations starting with 50 μg/ml. Drug [Ciprofloxacin (ICN Biomedicals, Ohio)] as well as growth and blank (media only) controls were added to each test plate. Plates were read at 630 nm using the EL-340 Biokinetics Reader (Bio-Tek Instruments, Vermont) prior to and after incubation at 37° C. for 24 hours. Percent growth was calculated and plotted versus concentration to afford the IC50, or sample concentration that affords 50% growth of the organism relative to controls.

[4] = system: Staphylococcus aureus ATCC 29213; assay: Antimicrobial bioassay, S. aureus; assay type: cell-based; details: Staphylococcus aureus, ATCC29213
Method: as §2

[5] = system: double-stranded DNA oligonucleotide; assay: DNA binding by ESI-MS; parameters: key: MetalDepend.: all ligand-DNA complex ions also contained a metal ion.; None: no ligand-DNA complex ions observed.; MetalIndepend.: ligand-DNA and ligand-DNA-metal ion complex ions observed; details: ligand-DNA complex ions, presence or absence of added NiCl2
[6] = alamarBlue cytotoxicity, range over three cell lines; assay type: cell-based; details: human; range of concentrations required to inhibit growth of MCF-7, HT-29, and PC-3 cells by 50%
Method: as §1, with “hours. The final pyridine concentration in all cases was 0.4%; at this pyridine concentration there was no affect on the growth of cells compared to cells in culture media without added pyridine.” for “hours.”, “nm. Results are reported as IC50 values, the average concentration required to produce a decrease of fluorescent intensity of 50% relative to vehicle-treated controls in two separate determinations.” for “nm.”

PC-3 cells = assay: alamarBlue cytotoxicity assay, PC-3; assay type: cell-based, human; details: Homo sapiens, PC-3, 72 h, PC-3, alamarBlue
Method: as §1, with “hours. The final pyridine concentration in all cases was 0.4%; at this pyridine concentration there was no affect on the growth of cells compared to cells in culture media without added pyridine.” for “hours.”, “nm. Results are reported as IC50 values, the average concentration required to produce a decrease of fluorescent intensity of 50% relative to vehicle-treated controls in two separate determinations.” for “nm.”

HT-29 cells = assay: alamarBlue cytotoxicity assay, HT-29; assay type: cell-based; details: Homo sapiens; HT-29, alamarBlue, 72 h
Method: as §1, with “hours. The final pyridine concentration in all cases was 0.4%; at this pyridine concentration there was no affect on the growth of cells compared to cells in culture media without added pyridine.” for “hours.”, “nm. Results are reported as IC50 values, the average concentration required to produce a decrease of fluorescent intensity of 50% relative to vehicle-treated controls in two separate determinations.” for “nm.”

[7] = Metal ion binding by continuous variation, Ca2+; details: Ca^2+, methanol, 1:1 complex
Method: (§3) Previous work indicated the metal ion binding mechanism of UK-1, so the method of continuous variation was used to determine the ability of selected UK-1analogues to bind a variety of metal ions. Methanolic solutions of UK-1 or UK-1 analogues and metal ion salts [Ca(NO3)2, Mg(NO3)2, Zn(NO3)2, or Fe(NO3)3] at various molar ratios, and 20 μM combined total concentration, were prepared and the absorbance at 418 nm was determined. […] Compound 2.1 does bind with Ca^2+ and Zn^2+ better than UK-1.
(§4) Continuous variation plots. A 100 μM solution of UK-1 or analogue and 100 AM solutions of Ca(NO3)2, Mg(NO3)2, Zn(NO3)2, or Fe(NO3)3 were prepared in methanol. From these stock solutions, 15 samples (1 mL) of varying mole fraction of the metal ion were prepared at a constant, combined concentration of 20 μM for the ligand and the metal ion. The change in absorbance was monitored from 500 to 200 nm for each sample using as a reference a 1 mL solution containing the same concentration of ligand as the sample being measured but without the metal ion. The maximum absorbance change was typically around 418 nm but varied somewhat for each metal ion. The absorbance at 418 nm was plotted as a function of the mole fraction of the metal ion and the maximum absorbance change was determined. The absorbance of a sample containing the metal ion concentration corresponding to this maximum change and a 15 fold excess of metal ion at this ligand concentration, subtracted from a reference containing the same concentration of ligand but no metal ion was used to normalize the curve and obtain the conditional formation constant as described in the paper to Likussar, W.; Boltz, D. F. Anal. Chem. 1971, 43, 1265-1272, which is incorporated herein by reference.

[8] = Metal ion binding by continuous variation, Zn2+; details: for Association constant for metal ion binding: Zn^2+, methanol, 1:1 complex
Method: as §3, §4

HL60 cells = assay: alamarBlue cytotoxicity assay, HL60; assay type: cell-based, human; details: Homo sapiens
Method: as §1, with “hours. The final pyridine concentration in all cases was 0.4%; at this pyridine concentration there was no affect on the growth of cells compared to cells in culture media without added pyridine.” for “hours.”, “nm. Results are reported as IC50 values, the average concentration required to produce a decrease of fluorescent intensity of 50% relative to vehicle-treated controls in two separate determinations.” for “nm.”

MCF-7 cells = assay: alamarBlue cytotoxicity assay, MCF-7; assay type: cell-based; details: Homo sapiens, MCF7; MCF-7, alamarBlue, 72 h
Method: as §1, with “hours. The final pyridine concentration in all cases was 0.4%; at this pyridine concentration there was no affect on the growth of cells compared to cells in culture media without added pyridine.” for “hours.”, “nm. Results are reported as IC50 values, the average concentration required to produce a decrease of fluorescent intensity of 50% relative to vehicle-treated controls in two separate determinations.” for “nm.”

[9] = Metal ion binding by continuous variation, Mg2+; details: for Association constant for metal ion binding: Mg^2+, methanol, 1:1 complex
Method: as §3, §4

[10] = Metal ion binding by continuous variation, Fe3+; details: Fe^3+, methanol, 1:1 complex
Method: as §3, §4

Candida albicans = assay: Antimicrobial bioassay, Candida albicans; assay type: cell-based
Pseudomonas aeruginosa = assay: Antimicrobial bioassay, P. aeruginosa; assay type: cell-based; details: P. aeruginosa
Cryptococcus neoformans = assay: Antimicrobial bioassay, Cryptococcus neoformans; assay type: cell-based
[11] = 50% growth of test organism, NA = no activity observed at concentrations up to 50 μg/mL, read-out: Antibacterial IC50 Meth-resist S. aureus
[12] = 50% growth of test organism, NA = no activity observed at concentrations up to 50 μg/mL, read-out: Antibacterial IC50 S. aureus
[13] = Methacilline-resistant Staph. Aureus, growth inhibited by 50%, read-out: Staph. aureus IC50

Structure (SMILES): COC(=O)c1cccc2oc(-c3cccc4oc(-c5ccccc5OC)nc34)nc12 [MUK-1]
activity against yeast and filamentous fungi (yeast, or fungi): active
activity against Gram-positive and Gram-negative bacteria [1]: have shown activity

Structure (SMILES): O=C(O)c1cccc2oc(-c3cccc4oc(-c5ccccc5O)nc34)nc12 [DMUK-1]
activity against Gram-positive and Gram-negative bacteria [1]: have shown activity

Structure (SMILES): COC(=O)c1cccc2oc(-c3ccccc3OCc3ccccc3)nc12 [Compound 2.5, Methyl 2-[2-(benzyloxy)phenyl]-1,3-benzoxazole-4-carboxylate]
IC50 at 72 h [2]: > 100 µM

Structure (SMILES): O=C(O)c1cccc2[nH]c(-c3ccccc3OCc3ccccc3)nc12 [Compound 2.9, 2-[2-(benzyloxy)phenyl]-1H-benzimidazole-4-carboxylic acid]
IC50 [3, 11]: 102 µM
IC50 at 72 h [2]: > 100 µM
IC50 [4, 12]: 102 µM

Structure (SMILES): O=C(O)c1cn(C2CC2)c2cc(N3CCNCC3)c(F)cc2c1=O [Ciprofloxacin]
IC50 [3, 11]: 0.45 µM
IC50 [3, 13]: 0.45 mg/L
DNA-Binding ESI-MS [5]: MetalIndepend.^f
IC50 at 72 h [6]: > 100 µM
IC50 [4, 12]: 0.45 µM

Structure (SMILES): O=C(O)c1cccc2oc(-c3ccccc3OCc3ccccc3)nc12 [Compound 2.6, 2-[2-(benzyloxy)phenyl]-1,3-benzoxazole-4-carboxylic acid]
IC50 [3, 11]: 29 µM
IC50 [3, 13]: 29 mg/L
DNA-Binding ESI-MS [5]: MetalIndepend.^f
IC50 at 72 h [6]: > 100 µM
IC50 at 72 h [2]: > 100 µM
IC50 [4, 12]: 43 µM

Structure (SMILES): COC(=O)c1cccc2[nH]c(-c3cccc4oc(-c5ccccc5O)nc34)nc12 [Compound 2.1, Methyl 2-[2-(2-hydroxyphenyl)-1,3-benzoxazol-4-yl]-1H-benz imidazole-4-carboxylate]
IC50 (PC-3 cells): > 100 µM
IC50 (HT-29 cells): > 100 µM
Association constant for metal ion binding [7]: 100000 M⁻¹
Association constant for metal ion binding [8]: 3.2e+06 M⁻¹
IC50 at 72 h [2]: ≥ 70 µM
IC50 (HL60 cells; HL-60, 72 h, HL60, alamarBlue, 72 h): 70 µM
IC50 (MCF-7 cells): > 100 µM
Association constant for metal ion binding [9]: 40000 M⁻¹
Association constant for metal ion binding [10]: 10000 M⁻¹

Structure (SMILES): COC(=O)c1cccc2nc(-c3ccccc3O)oc12 [Compound 2.16, Methyl 2-(2-Hydroxy-phenyl)-benzooxazole-7-carboxylate]
IC50 at 72 h [2]: > 100 µM

Second part, led by results:

IC50 (Candida albicans): > 50 mg/L
DNA-Binding ESI-MS [5]: MetalDepend.^d
IC50 (Pseudomonas aeruginosa): > 50 mg/L
Association constant for metal ion binding [7]: 6300 M⁻¹
Association constant for metal ion binding [8]: 1.3e+06 M⁻¹
IC50 (Cryptococcus neoformans): > 50 mg/L
IC50 ([4]; S. aureus, read-out: IC50): > 50 mg/L
Association constant for metal ion binding [9]: 320000 M⁻¹
Association constant for metal ion binding [10]: 7900 M⁻¹
Structure (SMILES): COC(=O)c1cccc2oc(-c3ccccc3O)nc12 [Compound 2.13, Methyl 2-(2-hydroxyphenyl)-benzoxazole-4-carboxylate]
IC50 [3, 13]: > 50 mg/L
IC50 (PC-3 cells): 0.88 µM
IC50 (HT-29 cells): 9.1 µM
IC50 at 72 h [2]: 0.88 to 9.1 µM
IC50 (HL60 cells; HL-60, HL60): 5.7 µM
IC50 (MCF-7 cells): 1.5 µM

Zn^2+ ion complexation ([8]; result in words): does appear to form complexes with Zn^2+
Mg^2+ ion complexation ([9]; result in words): does not appear to complex Mg^2+ ions
Structure (SMILES): Oc1ccccc1-c1nc2ccccc2o1 [Compound 2.17, 2-(2′-hydroxyphenyl)benzoxazole]
IC50 at 72 h [2]: > 100 µM

DNA-Binding ESI-MS [5]: None^e
Structure (SMILES): Oc1ccccc1-c1nc2ccccc2o1 [drawing 10]
IC50 [3, 13]: > 50 mg/L
IC50 at 72 h [6]: > 100 µM
